Results on 9 compounds are retold here after patent US12364706B2, “Modified aminoglycoside compounds and uses thereof in disabling bacterial ribosome” (Technion Research & Development Foundation Limited, priority 2018, dated 2025).

Test [1] has as its system Gram-positive pathogenic MRSA strains. In words: Antibacterial activity (MIC, double-microdilution) against MRSA strains. The format is cell-based. The settings on record: relative to NeoB. The protocol:
(§1) Comparative antibacterial activities were determined by measuring the MIC values by using the double-microdilution method according to the National Committee for Clinical Laboratory Standards (NCCLS).
(§2) All the experiments were performed in triplicate, and analogous results were obtained in three different experiments.
The resistant strains included MRSA, a Gram-positive bacterium, the treatment of which represents a great challenge in the clinic; MRSA 252, which is known for its high resistance to aminoglycosides [M. T. G. Holden, E. J. Feil, J. A. Lindsay, S. J. Peacock, N. P. J. Day, M. C. Enright, T. J. Foster, C. E. Moore, L. Hurst, R. Atkin, et al., Proc. Natl. Acad. Sci. USA 2004, 101, 9786-9791]; and MRSA CI 15877, which is resistant to natural aminoglycosides [G. Kaneti, H. Sarig, I. Marjieh, Z. Fadia, A. Mor, FASEB J. 2013, 27, 4834-4843].
Background: In broth dilution the organism is exposed to a series of concentrations in liquid medium.

The subject of test [2] is WT and aminoglycoside-resistant strains, including Gram-negative and Gram-positive bacteria. The test is described as follows: Antibacterial activity (MIC) against WT and aminoglycoside-resistant strains. It is filed as cell-based. The procedure: as §1, §2
The minimal inhibitory concentration (MIC) values of the newly designed exemplary Compounds 1-10 were determined against wild-type (WT) Gram-negative and Gram-positive bacteria.
The bacterial strains that were included in these tests were as follows:
Two wild-type (WT) E. coli strains (R477-100 and 25922) as representatives of Gram-negative bacteria with unknown resistance to aminoglycosides [V. Pokrovskaya, V. Belakhov, M. Hainrichson, S. Yaron, T. Baasov, J. Med. Chem. 2009, 52, 2243-2254] and two WT Staphylococcus epidermidis and Bacillus subtilis strains as representatives of Gram-positive bacteria (the clinically used aminoglycosides have significant antibacterial activity against these strains) [J. Kondo, M. Hainrichson, I. Nudelman, D. Shallom-Shezifi, C. M. C. M. Barbieri, D. S. D. S. Pilch, E. Westhof, T. Baasov, ChemBioChem 2007, 8, 1700-1709]. […]

The test system of test [3] is E. coli ribosomes. The test is described as follows: rRNA cleavage experiments with full-size E. coli ribosomes (gel electrophoresis). It is filed as biochemical.
Test [4] has as its system E. coli S30 extract for circular DNA with the pBESTluc plasmid. In words: Prokaryotic in vitro translation inhibition, coupled transcription/translation assay. The format is biochemical. The settings on record: for IC50: prokaryotic system, 37° C., 60 minutes, read-out: IC50 values, protein translation inhibition (half-maximum inhibition levels); for inhibitory potency of protein translation compared with NeoB: relative to NeoB. The procedure:
Prokaryotic in vitro translation inhibition by the different standard and synthetic aminoglycosides was quantified in coupled transcription/translation assays by use of E. coli S30 extract for circular DNA with the pBESTluc plasmid (Promega), according to the manufacturer's protocol.
Translation reactions ([…]) containing variable concentrations of the tested aminoglycoside were incubated at 37° C. for 60 minutes, cooled on ice for 5 minutes, and diluted with a dilution reagent [Tris-phosphate buffer (25 mm, pH 7.8), dithiothreitol (DTT, 2 mm), 1,2-diaminocyclohexanetetraacetate (2 mm), glycerol (10%), triton X100 (1%), and bovine serum albumin (BSA, 1 mg/mL] into 96-well plates.
The luminescence was measured immediately after the addition of Luciferase Assay Reagent (Promega) ([…]), and light emission was recorded with a Victor3 Plate Reader (PerkinElmer).
The concentration of half-maximal inhibition (IC^50) was obtained from fitting concentration-response curves to the data of at least three independent experiments by using Grafit 5 software.

In test [5] the test system is Geobacillus T1 harboring the resistance to kanamycin. The test is described as follows: Antibacterial activity against kanamycin-resistant Geobacillus T1. It is filed as cell-based. The procedure: as §1, §2
Test [6] concerns adenylyl(3′-5′)-adenosine (ApA). Particulars: relative to 1,3-propanediamine; cited from earlier work.

Take “4′-O-(2-aminoethylamino)ethyl-neomycin [Compound 2]”: in test [1], the “MIC values, times lower than that of NeoB” value came to 64 times.

“4′-O-(2-aminoethylamino)ethyl-paromamine [Compound 1]”: the antibacterial activity result in test [2] is on record as “substantially lower than that of the other compounds tested”.

On to `CNCCNCCO[C@H]1[C@H](O)[C@@H](N)[C@@H](O[C@H]2[C@H](O[C@@H]3O[C@H](CO)[C@@H](O[C@H]4O[C@@H](CN)[C@@H](O)[C@H](O)[C@H]4N)[C@H]3O)[C@@H](O)[C@H](N)C[C@@H]2N)O[C@@H]1CN` [Compound 3, 4′-O-(2-(methylamino)ethylamino)ethyl-neomycin], for which the “cleavage of rRNA in full ribosomes” value in test [3] (pH 7) is recorded as “did not show any signs of the cleaved product”.

As a reminder, the IC50 is the concentration at which inhibition is half-maximal. Consider `NCCNCC(=O)N[C@H]1[C@H](O)[C@@H](N)[C@@H](O[C@H]2[C@H](O[C@@H]3O[C@H](CO)[C@@H](O[C@H]4O[C@@H](CN)[C@@H](O)[C@H](O)[C@H]4N)[C@H]3O)[C@@H](O)[C@H](N)C[C@@H]2N)O[C@@H]1CN` [Compound 6, 4′-(2-(aminoethylamino)acetamido)-4′-deoxy-neomycin], for which, in test [4], the IC50 stood at 6 nM and the “inhibitory potency of protein translation compared with NeoB” value (“inhibitory potency … compared with NeoB” for short) is on record as “two-fold higher than that of NeoB”.

As for `NCCNCCNCC(=O)NC1C(CN)OC(OC2C(N)CC(N)C(O)C2OC2OC(CO)C(OC3OC(CN)C(O)C(O)C3N)C2O)C(N)C1O` (stereo not drawn) [Compound 8, 4′-[2-(2-(2-aminoethylamino)ethylamino)acetamido]-4′-deoxy-neomycin], the “MIC values, times lower than that of NeoB” value in test [1] was 64 times.

Take `NCCNCC(=O)NC[C@H]1O[C@H](O[C@H]2[C@H](O[C@@H]3O[C@H](CO)[C@@H](O[C@H]4O[C@@H](CN)[C@@H](O)[C@H](O)[C@H]4N)[C@H]3O)[C@@H](O)[C@H](N)C[C@@H]2N)[C@H](N)[C@@H](O)[C@@H]1N` [Compound 9, 4′-amino-6′-(2-(aminoethylamino)acetamido)-4′-deoxy-neomycin]: in test [4], the IC50 amounted to 5 nM and the “inhibitory potency … compared with NeoB” value was “two-fold higher than that of NeoB”.

Take `NCCNCCNCC(=O)NC[C@H]1O[C@H](O[C@H]2[C@H](O[C@@H]3O[C@H](CO)[C@@H](O[C@H]4O[C@@H](CN)[C@@H](O)[C@H](O)[C@H]4N)[C@H]3O)[C@@H](O)[C@H](N)C[C@@H]2N)[C@H](N)[C@@H](O)[C@@H]1N` [Compound 10, 4′-amino-6′-[2-(2-(2-aminoethylamino)ethylamino)acetamido]-4′-deoxy-neomycin]: in test [4], the IC50 is 6 nM and the “inhibitory potency … compared with NeoB” value is “two-fold higher than that of NeoB”.

As for `NC[C@@H]1O[C@H](O[C@H]2[C@@H](O)[C@H](O[C@@H]3[C@@H](O)[C@H](N)C[C@H](N)[C@H]3O[C@H]3O[C@H](CN)[C@@H](O)[C@H](O)[C@H]3N)O[C@@H]2CO)[C@H](N)[C@@H](O)[C@@H]1O` [NeoB, Neomycin B], in test [4], the IC50 worked out at 10 nM. In addition, the antibacterial activity result in test [5] is given as “almost lost its activity”. Further, in test [3] (concentrations up to 400 mM, 24 hours, 37° C., pH 7.0), the “cleavage of rRNA in full ribosomes” value is reported as “did not show any signs of the cleaved product”. Moreover, in test [6], the “hydrolysis of ApA, faster than 1,3-propanediamine” value is 3 fold.

Turning to `NCCN` [ethylenediamine], the “cleavage of rRNA in full ribosomes” value in test [3] (pH 7) is listed as “did not cleave the full ribosome”.
